Patent publication US20030232101A1, “Topical formulations of resorcinols and cannibinoids and methods of use” (Immugen Pharmaceuticals, Inc., priority 2002, published 2003)

Tests used:
Assay type in all cases: cell-based
[1] = tested on: HIV-1; experiment: HeLa CD4 LTR β-gal HIV-1 attachment assay (Experimental Example 1); conditions: for IC50: Human immunodeficiency virus 1, HeLa; for β-galactosidase production relative to background (cells alone+compounds): at all times; for inhibition of HIV attachment/entry: following a 24 h pre-incubation
[2] = tested on: HIV-1 (96USHIPS7 strain); experiment: HIV attachment assay in PBMCs (cell-associated p24); conditions: for Comments: effect on HIV attachment / % Control / pg p24: 15 μM; for Comments: effect on HIV attachment: pretreatment 0, 2, 4, 24 h
Procedure: ELISA kits were purchased from Coulter Electronics. The assay was performed according to the manufacturer's instructions. Control curves were generated in each assay to accurately quantitate the amount of p24 antigen in each sample. For experiments using cell lysates. Fifty thousand (5×10^4) viable cells were lysed in Coulter ELISA buffer and subjected to 1 round of freeze/thawed to liberate trapped p24 and p24 detected per manufacturers instructions. HIV capsid protein (p24) was quantitated spectrophotometrically at 450 nm using a Molecular Devices Vmax plate reader using a standard curve. Final concentrations were calculated from the optical density values using the Molecular Devices Soft Max software package.
The attachment assay with PBMCs was performed as follows. Briefly, 1×10^6 PHA/IL-2 PBMCs were incubated for 0, 2, 4 and 24 hours with IMG compounds and cannabidiol in polypropylene tubes. A pre-titered amount of HIV-1 (96USHIPS7 strain, obtained from the AIDS Research and Reference Reagent Program ) was added in the presence of compound and incubated for 3 h at 37° C. After incubation the cultures were washed 3 times (400×g, 10 min, 4° C.) with media (1:25,000 dilution of input p24), the cell pellets lysed with p24 lysing buffer (Coulter) and p24 content determined by ELISA.
PBMCs pretreated with compounds for 0, 2, 4, and 24 were incubated with cell-free HIV-1 for 3 h and the excess unbound HIV removed. The assessed the amount of HIV bound to the cell was then assessed by measuring cell-associated p24 content of total cell lysates.

[3] = tested on: interaction of HIV gp 120 with CD4 (HeLa CD4 LTR β-gal / HL2/3 cell fusion); experiment: HeLa CD4 LTR β-gal/HL2/3 HIV-1 fusion assay (Experimental Example 1); conditions: fusion assay
Source text: This assay uses the HeLa CD4 LTR β-gal and HL2-3 cells available from the AIDS Research and Reference Reagent Repository. The fusion assay utilizes HeLa CD4 LTR β-gal cells with HL2/3 cells as a fusion partner via the interaction of HIV gp 120 with CD4. HL2/3 cells express HIV-1 Env on their cell surface and contain an HIV-1 Tat expression cassette. Upon syncytium formation and plasma membrane fusion, cytoplasmic mixing of the HL2/3 and HeLa CD4 LTR b-gal cell contents results in the transactivation of the LTR and β-Galactosidase expression is then directly related to […] cell membrane fusion. Thus, these two mechanistic assays can be used to confirm and identify a virus entry-based target of the compound. Additionally, because the attachment assay uses cell-free virus this assay can be used to show applicability to cell-free virus transmission.
Twenty-four h prior to initiation of the assay cells were trypsinized, counted and 5×10^3 cells placed in a 0.2 cm well in media without selection antibiotics. To initiate the fusion assay HeLa CD4 LTR β-gal (5×10^3 cells per 0.2 cm well) were incubated with compound for 1 h at 37° C. HL2/3 cells (5×10^3) were added to the 0.2 cm well and the incubation continued for 48 h. At 48 h the wells were washed 1 time with PBS and β-galactosidase enzyme expression determined by chemiluminescence per manufacturers instructions (Tropix Gal-screen™, Tropix, Bedford, Mass.). Compound toxicity was monitored on sister plates using MTS dye reduction.
In addition to assessing inhibition of attachment with HeLa CD4 LTR β-gal cells a virus fusion assay was perfoed using HeLa CD4 LTR β-gal and HL2/3 cells. No timed addition of compound was employed, but rather the assay was performed to verify the effects of the compounds on the HeLa CD4 LTR β-gal cells β-galactosidase expression.

[4] = tested on: IIIB strain of HIV-1; experiment: Virus attachment assay, HeLa CD4 LTR β-gal cells (Experimental Example 2); conditions: Human immunodeficiency virus 1, IIIB, HeLa, read-out: Attachment Assay IC50
Procedure: This assay detects compounds that block virus attachment using HeLa CD4 LTR β-gal cells. HeLa CD4 LTR β-gal cells were cultured with selection antibiotics. Twenty-four h prior to initiation of the assay, the cells were trypsinized, counted and plated in a 0.2 cm well in media without selection antibiotics. At 24 h media is removed and compound in media placed on the cells and incubated for 15 min at 37° C. A known titer of the IIIB strain of HIV-1 was then added to the wells and the incubation continued for 1 to 2 h. At the end of the incubation the wells were washed 2 times with media and the culture continued for 40 to 48 h. At termination of the assay, media is removed and β-galactosidase enzyme expression determined by chemiluminescence per manufacturer's instructions (Tropix Gal-screen, Bedford Mass.). Compound toxicity is monitored on a sister plate by XTT or MTS dye reduction. All determinations are performed in triplicate with serial_Log10 dilution of the test materials.

[5] = tested on: cell-to-cell fusion mediated by HIV-1 Env and CD4; experiment: Fusion assay, HeLa CD4 LTR β-gal and HL2/3 cells (Experimental Example 2); conditions: Human immunodeficiency virus 1, HL2/3, read-out: Fusion Assay IC50
Procedure: (§1) The fusion assay assesses the ability of compounds to block cell-to-cell fusion mediated by HIV-1 Env and CD4 expressed on separate cells. This assay is sensitive to inhibitors of both the gp 120/CD4 interaction and inhibitors of the X4 coreceptor. HeLa CD4 LTR β-gal cells were plated in microtiter wells and diluted compounds are added and allowed to incubate at 37° C. for 1 hr prior to the addition of HL2/3 cells. The incubation was then continued for 40 to 48 h, after which fusion is monitored by measurement of β-galactosidase enzyme expression, detectable by chemiluminescence (Tropix Gal-screen, Tropix, Bedford, Mass.). Compound toxicity is monitored on a sister plate using XTT or MTS dye reduction. All determinations are performed in triplicate with serial_Log10 dilution of the test materials.

[6] = Compound toxicity in the fusion assay, sister plate, XTT or MTS (Example 2); conditions: human, HeLa CD4 LTR β-gal cells, read-out: Fusion Assay TC50
Procedure: as §1

| Compound | IC50 ([1]; Experiment 1, pretreat 0 h) [µM] | IC50 ([1]; Experiment 1, pretreat 4 h) [µM] | IC50 ([1]; Experiment 1, pretreat 24 h) [µM] | IC50 ([1]; Experiment 2, pretreat 0 h) [µM] | IC50 ([1]; Experiment 2, pretreat 4 h) [µM] | IC50 ([1]; Experiment 2, pretreat 24 h) [µM] | β-galactosidase production relative to background (cells alone+compounds) [1] | inhibition of HIV attachment/entry [1] | Comment: transient suppression lost at lower concentrations ([1]; pretreat 4 h) | Comments: effect on HIV attachment [2] | % Control ([2]; time 0 h) [%] | pg p24 ([2]; time 0 h) [pg] | % Control ([2]; time 2 h) [%] | pg p24 ([2]; time 2 h) [pg] | % Control ([2]; time 4 h) [%] | pg p24 ([2]; time 4 h) [pg] | % Control ([2]; time 24 h) [%] | pg p24 ([2]; time 24 h) [pg] | Comment: suppression of β-galactosidase activity ([1]; pretreat 0 h) | Comment: suppression of β-galactosidase activity ([1]; pretreat 4 h) | further results |
| --- | --- | --- | --- | --- | --- | --- | --- | --- | --- | --- | --- | --- | --- | --- | --- | --- | --- | --- | --- | --- | --- |
| COc1cc(C(C)(C)CCCC(C)C)cc(OC)c1OC [IMG507, 1-(1,1,5-Trimethylhexyl)-3,4,5-trimethoxybenzene] | > 50 | > 50 | > 50 | 16 | > 50 | > 50 | suppressed β-galactosidase production below background | not | Transient suppression lost with at lower | no significant effect on virus attachment | 83.3 | 320 | 91.4 | 351 | 76.3 | 293 | 95.8 | 368 |  |  | transient suppression of virus replication at lower concentrations of compounds ([1]; observed consistently, two independent experiments): transient suppression of virus replication; Comment: transient suppression lost at lower concentrations ([1]; pretreat 0 h): Transient suppression lost with at lower; Comment: transient suppression lost at lower concentrations ([1]; pretreat 24 h): Transient suppression t lost with at lower |
| Cc1ccc2c(c1)-c1c(O)cc(C(C)(C)CCCC(C)C)cc1OC2(C)C [IMG511, 3-Norpentyl-3-(1,1,5-trimethylhexyl)cannabinol] | 25 | 9.5 | 2.5 | < 0.16 | 8.3 | 7.1 | suppressed β-galactosidase production below background | consistent inhibition | Transient suppression lost with at lower | No Significant effect | 75.5 | 290 | 85.4 | 328 | 76.6 | 294 | 91.7 | 352 | Suppression of β-galactosidase activity | Suppression of β-galactosidase activity, | Comment: suppression of β-galactosidase activity ([1]; pretreat 24 h): Suppression of β-galactosidase activity; Comments: suppression of β-galactosidase activity [3]: Suppression of β-galactosidase; IC50 [4]: 46.3 µM; IC50 [5]: 0.92 µM; CC50 [6]: 20.7 µM |
| C=C(C)[C@@H]1CCC(C)=C[C@H]1c1c(O)cc(CCCCC)cc1O [Cannabidiol, reference compound] | 14.1 | 6.8 | 1.2 | 1.3 | 28 | 1.4 | suppressed β-galactosidase production below background | consistent inhibition |  | No significant effect | 82.6 | 317 | 74.5 | 286 | 90.9 | 349 | 114.3 | 439 | Exp. 1 suppression of β-galactosidase | Suppression of β-galactosidase activity | Comment: suppression of β-galactosidase activity ([1]; pretreat 24 h): Suppression of β-galactosidase activity; virus binding relative to control ([2]; pretreated for 24 h): return to control levels of virus binding; Comments: suppression of β-galactosidase activity [3]: Suppression of β-galactosidase |
